The values that follow come from patent US9980943B2, “Methods of treating muscular dystrophy” (BOARD OF REGENTS OF THE NEVADA SYSTEM OF HIGHER EDUCATION, …, priority 2013, dated 2018).

What all share (assay type): cell-based, mouse
Assay [1] relates to α7 integrin (LacZ reporter in α7βgal+/− myoblasts). The assay can be described thus: Myoblast α7+/LacZ integrin FDG assay (Burkin assay in myoblasts, 96-well). As to conditions: α7+/LacZ myoblasts, 96-well.
For assay [2], the system named is α7 integrin (LacZ reporter in α7+/LacZ myotubes). The assay can be described thus: Myotube α7 integrin FDG assay (Burkin assay in myotubes, 96-well). Particulars: myotubes.
Assay [3] concerns β-galactosidase in CMV-LacZ C2C12 myotubes. In words: CMV-LacZ secondary screen in C2C12 myotubes (β-Gal stabilizing assay). As to conditions: for CMV-LACZ in Myotubes, signal relative to DMSO: C2C12 CMV-LacZ myotubes, fold relative to DMSO; for CMV-LACZ in Myotubes (β-galactosidase activity relative to DMSO): CMV-LacZ C2C12 myotubes, 96-well format. From the text:
In order to determine compounds that acted to stabilize β-gal in myogenic cells, a CMV-LacZ C2C12 cell line was used in a secondary screen. The EGFP gene from the pEGFP (Clontech) vector was replaced by LACZ PCR product with digests of the vector/PCR product performed using EcoRI (NEB) and NotI (NEB) and ligated using T4 DNA Ligase (NEB) following standard procedures to produce the CMV-LACZ vector. The LACZ gene was generated by PCR from the pBK-RSV (Stratagene) vector using primers LACZ EcoRI F- and LACZ NotI R-. The CMV-LACZ vector was then digested with AfIII (NEB) to linearize the construct, which was then transfected in C2C12 myoblasts using Lipofectamine 2000 (Invitrogen) following the manufacturer's instructions. […] Clonal lines were selected and screened for βgal levels using the myoblast FDG assay.
The assays were used the original 96-well format and new dose-response curves for myoblasts (N=3-6 replicates for each data point), myotubes (N=3-6 replicates for data point), and CMV-LacZ secondary assay (N=2 replicates for each data point) using concentrations of 0.5 μM, 1 μM, 5 μM, 10 μM, 20 μM, and 40 μM (Tables 9-16).

On to `COc1ccc(S(=O)(=O)N2CCCCCC2)cc1C(=O)N1CCN(c2ccccc2O)CC1` [MLS001150751-01], for which the “Burkin Assay in Myoblasts, signal relative to DMSO” value is listed as 1.114 in assay [1] (0.5 uM); 1.059 in assay [1] (1 uM); 0.9941 in assay [1] (5 uM); 0.9573 in assay [1] (10 uM); 1.079 in assay [1] (20 uM); 0.8454 in assay [1] (40 uM). Besides, the “Burkin Assay in Myotubes, α7 integrin LacZ reporter signal relative to DMSO” value was 1.0993 in assay [2] (0.5 uM); 0.9504 in assay [2] (1 uM); 1.254 in assay [2] (5 uM); 1.023 in assay [2] (10 uM); 1.0842 in assay [2] (20 uM); 0.5343 in assay [2] (40 uM). For the same compound, the “CMV-LACZ in Myotubes, signal relative to DMSO” value in assay [3] (5 uM) worked out at 0.9134; in assay [3] (10 uM), 0.8336; in assay [3] (20 uM) it was 0.992; in assay [3] (40 uM), 0.889.
As to `CCc1ccc(Sc2cc(C(=O)NCCN3CCOCC3)c3ccccc3n2)cc1` [MLS000584511-01], the “Burkin Assay in Myoblasts, value relative to DMSO” value in assay [1] (0.5 uM) is reported as 0.5425; in assay [1] (1 uM), 0.8885; in assay [1] (5 uM), 1.033; in assay [1] (10 uM), 1.087; in assay [1] (20 uM) it was 1.05; in assay [1] (40 uM), 1.072. The “Burkin Assay in Myotubes (signal relative to DMSO)” value in assay [2] (0.5 uM) was 1.0682; in assay [2] (1 uM), 1.051; in assay [2] (5 uM), 1.2189; in assay [2] (10 uM) it was 1.163; in assay [2] (20 uM) it was 1.004; in assay [2] (40 uM) it was 1.041. Moreover, the “CMV-LACZ in Myotubes, signal relative to DMSO” value in assay [3] (5 uM) is 0.8355; in assay [3] (10 uM), 0.8735; in assay [3] (20 uM) it was 0.871; in assay [3] (40 uM), 0.7478.
On to `CCCCCCC1CC(=O)NC(=O)N1` (stereo not drawn) [MLS000768008-01], for which the “Burkin Assay in Myoblasts, signal relative to DMSO” value in assay [1] (0.5 uM) was 0.9886; in assay [1] (1 uM), 0.9618; in assay [1] (5 uM) it was 0.8976; in assay [1] (10 uM), 0.8768; in assay [1] (20 uM), 0.7837; in assay [1] (40 uM), 0.8787. Moreover, the “Burkin Assay in Myotubes, α7 integrin LacZ reporter signal relative to DMSO” value worked out at 1.073 in assay [2] (0.5 uM); 1.179 in assay [2] (1 uM); 1.11 in assay [2] (5 uM); 1.273 in assay [2] (10 uM); 1.098 in assay [2] (20 uM); 1.2867 in assay [2] (40 uM). The “CMV-LACZ in Myotubes, signal relative to DMSO” value in assay [3] (5 uM) came out at 0.8276; in assay [3] (10 uM) it was 0.9644; in assay [3] (20 uM), 1.028; in assay [3] (40 uM), 0.9429.
For the compound `COC(=O)c1ccc(COC(=O)CNC(=O)c2cccs2)cc1` [MLS001123810-01], the “Burkin Assay in Myoblasts, value relative to DMSO” value in assay [1] (0.5 uM) came to 0.9767; in assay [1] (1 uM), 0.9524; in assay [1] (5 uM) it was 0.9782; in assay [1] (10 uM), 0.9779; in assay [1] (20 uM), 0.8853; in assay [1] (40 uM), 0.8729. Also, the “Burkin Assay in Myotubes (signal relative to DMSO)” value is on record as 0.974 in assay [2] (0.5 uM); 0.9657 in assay [2] (1 uM); 1.417 in assay [2] (5 uM); 1.116 in assay [2] (10 uM); 0.9515 in assay [2] (20 uM); 0.9694 in assay [2] (40 uM). The “CMV-LACZ in Myotubes, signal relative to DMSO” value in assay [3] (5 uM) is recorded as 0.8812; in assay [3] (10 uM), 0.815; in assay [3] (20 uM), 1.159; in assay [3] (40 uM), 0.9346.
In the case of `CNc1cc([N+](=O)[O-])ccc1OCc1ccccc1` [MLS000737204-01], the “Burkin Assay in Myoblasts, signal relative to DMSO” value in assay [1] (0.5 uM) is recorded as 0.9011; in assay [1] (1 uM) it was 0.9816; in assay [1] (5 uM), 0.9164; in assay [1] (10 uM), 0.9336; in assay [1] (20 uM), 0.8731; in assay [1] (40 uM) it was 0.7472. For the same compound, the “Burkin Assay in Myotubes, α7 integrin LacZ reporter signal relative to DMSO” value in assay [2] (0.5 uM) came out at 1.043; in assay [2] (1 uM), 1.173; in assay [2] (5 uM), 1.0331; in assay [2] (10 uM), 1.12; in assay [2] (20 uM), 0.8815; in assay [2] (40 uM) it was 0.6682. Also, the “CMV-LACZ in Myotubes, signal relative to DMSO” value in assay [3] (5 uM) turned out to be 1.029; in assay [3] (10 uM), 0.8068; in assay [3] (20 uM), 0.5772; in assay [3] (40 uM), 0.3807.
For `COc1ccc(C(=O)O/N=C(\N)c2cccc(C)c2)cc1OC` [MLS001165323-01], the “Burkin Assay in Myoblasts, value relative to DMSO” value in assay [1] (0.5 uM) amounted to 0.9704; in assay [1] (1 uM) it was 0.9491; in assay [1] (5 uM), 0.8821; in assay [1] (10 uM), 0.924; in assay [1] (20 uM) it was 0.8743; in assay [1] (40 uM), 0.4779. Also, the “Burkin Assay in Myotubes (signal relative to DMSO)” value in assay [2] (0.5 uM) came out at 0.9468; in assay [2] (1 uM), 0.9627; in assay [2] (5 uM), 1.166; in assay [2] (10 uM), 1.153; in assay [2] (20 uM) it was 1.054; in assay [2] (40 uM), 1.088. Moreover, the “CMV-LACZ in Myotubes (β-galactosidase activity relative to DMSO)” value is 1.072 in assay [3] (5 uM), 0.9 in assay [3] (10 uM), 1.315 in assay [3] (20 uM) and 1.488 in assay [3] (40 uM).
